According to patent US4853410A, “Hydroxyacetic acid derivatives for the treatment of diabetic complications” (Pfizer Inc., priority 1987, dated 1989):
Like-named read-outs stand apart in the source and are kept apart here.

Molecular target: T1, aldose reductase enzyme (Homo sapiens, UniProt P15121)
T1 construct: partially purified aldose reductase enzyme obtained from human placenta; from tissue; host or cells: human placenta
Experiment: in vitro inhibition of aldose reductase enzyme activity (procedure of U.S. Pat. No. 3,821,383, based on Hayman et al.)
Type: biochemical
From the text: The substrate employed is partially purified aldose reductase enzyme obtained from human placenta.

SMILES: C[C@@H]1C[C@@](O)(CC(=O)O)c2cc(Cl)ccc2O1 (relative stereo) [Example 15, 6-Chloro-c-4-hydroxy-r-2-methylchroman-4-acetic Acid]
- IC50 (read-out: IC50, inhibition concentration calculated to show 50% inhibition of enzyme activity, partially purified aldose reductase from human placenta): ~860 nM

SMILES: C[C@@H]1C[C@@](O)(CC(=O)O)c2cc(Cl)c(Cl)cc2S1(=O)=O (relative stereo) [Example 113, 6,7-Dichloro-c-4-hydroxy-r-2-methyl-3,4-dihydro-2H-1-thianaphthalene-4-acetic Acid 1,1-Dioxide]
- inhibition at 10 µM (at 10^-5 M, partially purified aldose reductase from human placenta, read-out: percent inhibition of enzyme activity): 37%

SMILES: C[C@@H]1C[C@@](O)(CC(=O)O)c2cc([N+](=O)[O-])c(Cl)cc2O1 (relative stereo) [Example 82, 7-Chloro-6-nitro-c-4-hydroxy-r-2-methylchroman-4-acetic acid]
- IC50: ~51 nM
